Patent US20230146455A1, “TREATMENT OF INFLAMMATORY DISEASES WITH PEPTIDES AND PHARMACEUTICAL COMPOSITIONS” (Yuyu Pharma, Inc., priority 2020, published 2023)
≈ marks a conversion by molar mass, not a printed value. Where a SMILES comes first, the peptide text is derived from it. [ ]: non-standard residue; d: D form. The star is where a group is joined. Pyrrolidin1yl(2S-Ac) = CC(=O)[C@@H]1CCCN1*; Hyp = O=C(O)[C@@H]1C[C@@H](O)CN1; Pyrrolidide = C1CCN(*)C1; X1 = CCN(C(C)C)*; NMeEt = CCN(C)*

What was measured:
[1] = Solubility (in water; in saline); assay type: physicochemical; conditions: for solubility: water
[2] = system: IL-6 cytokine release in poly I:C stimulated primary human corneal epithelial cells; experiment: Soluble IL-6 cytokine release in poly I:C stimulated primary human corneal epithelial cells by ELISA (Example 2); assay type: cell-based; conditions: 25 μg/mL poly I:C, 24 hours; for Poly I:C induced IL-6 cytokine release (in words): 30, 10, 1, 0.1, 0.01, 0.001 μM
Method: Assay protocol as shown below was used to determine the significant effect of test compounds. The data was statistically analyzed by one-way ANOVA with a Bonferroni post test comparing all the columns. The significance was represented by the p value.
Selected YDE peptides (YDE-093, -096, -100, -101, -102, -103, -104, -105, -106 and -107) were evaluated by assessing the soluble IL-6 cytokine release in poly I:C stimulated primary human corneal epithelial cells by ELISA (Biolegend, 430504).
Specifically, primary corneal epithelial cells (ATCC, ATCC PCS-700-010) were seeded on a 6-well culture plate containing the Corneal Epithelial Cell Basal Medium (ATCC, ATCC PCS-700-030) in the Corneal Epithelial Cell Growth Kit (ATCC, ATCC PCS-700-040) in an amount of 1.2×10^5 cells per well, which was then cultured for 24 hours under the conditions of 37° C. and 5% CO2. Then, cells were washed with 1×PBS and replaced with serum free medium which was then cultured for 2 hours under the conditions of 37° C. and 5% CO2.
After 2 hours, cells were treated with compounds at 6 differential concentrations (Hinokitiol/YDE peptides at 30, 10, 1, 0.1, 0.01, and 0.001 μM) with the DMSO final 0.5% and then cultured for 1 hour under the conditions of 37° C. and 5% CO2.
After 1 hour, cells were further treated with 25 μg/mL of poly I:C and cultured for 24 hours under the conditions of 37° C. and 5% CO2.
Following incubation, the supernatant was collected for IL-6 levels was assessed by Sandwich ELISA (Enzyme-linked immunosorbent assay) following manufacturer's instructions. The data was statistically analyzed by one-way ANOVA with a Bonferroni post-test comparing all the columns. The significance was represented by the p value.

Row | SMILES | solubility [1] [µg/mL] | Solubility in Water [1] [µg/mL] | tested concentrations with significant attenuation of IL-6 cytokine release [2] | Poly I:C induced IL-6 cytokine release (in words) [2] | other results
1 | CC(C)C[C@H](NC(=O)CNC(=O)[C@H](CC(=O)O)NC(=O)[C@H](CCC(N)=O)NC(=O)CNC(=O)[C@@H]1C[C@@H](O)CN1)C(=O)N[C@@H](C)C(=O)O [YDE-094, O*GQDGLA] (H-[Hyp]GQDGLA-OH) | 10000 (≈ 14.9 mM) | – | – | – | –
2 | CC(=O)[C@@H]1CCCN1C(=O)CNC(=O)[C@H](C)NC(=O)[C@H](CC(C)C)NC(=O)CNC(=O)[C@H](CC(C)C)NC(=O)[C@H](CCC(N)=O)NC(=O)CNC(=O)[C@@H]1C[C@@H](O)CN1 [YDE-100] (H-[Hyp]GQLGLAG-{Pyrrolidin1yl(2S-Ac)}) | – | 10000 (≈ 12.2 mM) | 30 μM, and 10 μM | attenuation of IL-6 release | Poly I:C induced IL-6 cytokine release (in words) ([2]; listed as YDE100): attenuate Poly I:C induced IL-6 cytokine release in a dose dependent manner
3 | CC(C)C[C@H](NC(=O)CNC(=O)[C@H](CC(C)C)NC(=O)[C@H](CCC(N)=O)NC(=O)CNC(=O)[C@@H]1C[C@@H](O)CN1)C(=O)N[C@@H](C)C(=O)NCC(=O)N1CCC[C@H]1C(=O)N(C)C [YDE-101] (H-[Hyp]GQLGLAGP-NMe2) | – | 10000 (≈ 11.7 mM) | 30 μM, 10 μM, and 1 μM | attenuation of IL-6 release | Poly I:C induced IL-6 cytokine release (in words) ([2]; listed as YDE101): attenuate Poly I:C induced IL-6 cytokine release in a dose dependent manner
4 | CCNC(=O)[C@@H]1CCCN1C(=O)CNC(=O)[C@H](C)NC(=O)[C@H](CC(C)C)NC(=O)CNC(=O)[C@H](CC(C)C)NC(=O)[C@H](CCC(N)=O)NC(=O)CNC(=O)[C@@H]1C[C@@H](O)CN1 [YDE-102] (H-[Hyp]GQLGLAGP-NHEt) | – | 10000 (≈ 11.7 mM) | 30 μM, 10 μM, and 1 μM | attenuation of IL-6 release | Poly I:C induced IL-6 cytokine release (in words) ([2]; listed as YDE102): attenuate Poly I:C induced IL-6 cytokine release in a dose dependent manner
5 | CCN(C)C(=O)[C@@H]1CCCN1C(=O)CNC(=O)[C@H](C)NC(=O)[C@H](CC(C)C)NC(=O)CNC(=O)[C@H](CC(C)C)NC(=O)[C@H](CCC(N)=O)NC(=O)CNC(=O)[C@@H]1C[C@@H](O)CN1 [YDE-103] (H-[Hyp]GQLGLAGP-NMeEt) | – | – | – | attenuation of IL-6 release | tested concentrations with significant attenuation of IL-6 cytokine release ([2]; listed as YDE103): 30 μM, 10 μM, 1 μM and 0.1 μM; Poly I:C induced IL-6 cytokine release (in words) ([2]; listed as YDE103): attenuate Poly I:C induced IL-6 cytokine release in a dose dependent manner
6 | CCN(C)C(=O)[C@@H]1CCCN1C(=O)CNC(=O)[C@H](C)NC(=O)[C@H](CC(C)C)NC(=O)CNC(=O)[C@H](CC(C)C)NC(=O)[C@H](CCC(N)=O)NC(=O)CNC(=O)[C@@H]1C[C@@H](O)CN1 [YDE-105] (H-[Hyp]GQLGLAGP-NMeEt) | 10000 (≈ 11.5 mM) | – | – | – | tested concentrations with significant attenuation of IL-6 cytokine release ([2]; listed as YDE105): 30 μM, 10 μM, and 1 μM; Poly I:C induced IL-6 cytokine release (in words) ([2]; listed as YDE105): attenuate Poly I:C induced IL-6 cytokine release in a dose dependent manner
7 | CC(C)C[C@H](NC(=O)CNC(=O)[C@H](CC(C)C)NC(=O)[C@H](CCC(N)=O)NC(=O)CNC(=O)[C@@H]1C[C@@H](O)CN1)C(=O)N[C@@H](C)C(=O)NCC(=O)N1CCC[C@H]1C(=O)N1CCCC1 [YDE-106] (H-[Hyp]GQLGLAGP-Pyrrolidide) | – | 10000 (≈ 11.4 mM) | 30 μM, 10 μM, and 1 μM | attenuation of IL-6 release | Poly I:C induced IL-6 cytokine release (in words) ([2]; listed as YDE106): attenuate Poly I:C induced IL-6 cytokine release in a dose dependent manner
8 | CCN(C(=O)[C@@H]1CCCN1C(=O)CNC(=O)[C@H](C)NC(=O)[C@H](CC(C)C)NC(=O)CNC(=O)[C@H](CC(C)C)NC(=O)[C@H](CCC(N)=O)NC(=O)CNC(=O)[C@@H]1C[C@@H](O)CN1)C(C)C [YDE-107] (H-[Hyp]GQLGLAGP-X1) | 10000 (≈ 11.2 mM) | – | 30 μM, 10 μM, and 1 μM | attenuation of IL-6 release | Poly I:C induced IL-6 cytokine release (in words) ([2]; listed as YDE107): attenuate Poly I:C induced IL-6 cytokine release in a dose dependent manner
